The source of these data is patent publication US20170131285A1, “METHODS AND COMPOSITIONS FOR DIAGNOSING, MONITORING AND TREATING CANCER” (INSERM (Institut National de la Sante et de la Recherche …, priority 2014, published 2017).

Test [1] concerns HCT116 cells. Nature of the test: HSP70-exosomes release from HCT116 cells treated with chemotherapy drugs (BLI, flow cytometry). In kind it is cell-based, human. To be noted: for amount of HSP70-exosomes released, dose-response / number of exosomes at higher doses: HCT116, 48 h; for amount of HSP70-exosomes released, dose-response: concentrations inducing a relatively low amount of cell death, flow cytometry; for number of exosomes at higher doses: doses inducing more than 40% cell death; for amount of HSP70-exosomes released, extent of increase: HCT116, toxic equivalent concentrations: oxaliplatin 5 μM, 5FU 3 μM, paclitaxel 50 nM, gemcitabin 10 μM, doxorubicin 2.5 μM, BLI. As to the method:
FIG. 7: Effect of chemotherapy drugs on HSP70-exosomes release. A) Association curves of HSP70-exosomes isolated from the supernatant of HCT116 cells treated or not with oxaliplatin (5 μM), 5FU (3 μM), paclitaxel (50 nM), gemcitabin (10 μM) and doxorubicin ([…]). For the BLI, biotinylated A8 was immobilized on streptavidin sensor tips, n=3. B-C) HCT116 cells were treated with 5FU (3, 12, 24 and 36 μM) or oxaliplatin (5, 20, 40 and 60 μM) or doxorubicin (2.5, 10, and 20 μM) during 48 h. B) concentration of HSP70-exosomes released was measured by flow cytometry. C) measured apoptosis of HCT116 (7AAD and FITC-Annexin V).
Cells were cultured in medium depleted from serum-derived exosomes. Supernatants were collected from cell lines and sequentially centrifuged at 300 g for 10 minutes (4° C.) and at 2,000 g for 10 minutes. Then, exosomes were ultracentrifugated at 100,000 g for 70 minutes and washed in PBS. The same protocol was used for urines and blood samples. To evaluate exosome concentrations, we used a Nano Sight LM10 instrument (NanoSight, Amesbury, UK).
Protein-protein interaction experiments were conducted with an Octet Red instrument (ForteBio, USA). The ligand (A8 or TLR2) was biotinylated using EZ-Link NHS-PEG4-biotin (2 nM, 30 min, RT, Thermo Fisher Scientific, Germany) and immobilized on streptavidin sensors (96-well plate black, ForteBio, USA). Functionalized sensors were incubated in PBS (10 min) then incubated with exosomes (10^6, from cancer cells lines or normal cells or mice blood or human urine, for 120 or 600 seconds) or HSP70 (concentration range from 2.5 μM to 0.52 nM) or cmHSP70 (1/1,000). All sensorgrams were corrected for baseline drift by subtracting a control sensor exposed to running buffer only. Each KD was determined with a 1:1 stoichiometry model using a global fit with Rmax unlinked by sensor (ForteBio, Data analysis software version 7.1.0.89).
Exosomes from cancer cells lines or normal cells were bound to surfactant-free white aldehyde-sulfate latex beads ([…], Invitrogen) and concentrated at 1·10^4 beads/μL. Exosomes (30 μg) were incubated with the beads suspension for 15 min and then for 1 h at room temperature (RT) in final volume of 1 mL PBS. Beads were saturated with glycine (100 mM) for 30 minutes at RT and washed twice with PBS supplemented by 3% of FBS. Expression of membranar HSP70 on cells (normal and cancerous) was determined by flow cytometry using cmHSP70 antibody. MSC2 and HCT116 cell death was measured by PS exposure, cells stained with 7AAD and FITC-Annexin V conjugate. All analyses were performed on a LSRII flow cytometer (BD Bioscience).

For test [2], the system named is B16F10 tumors. Nature of the test: B16F10 melanoma tumor model in C57/BL6 mice. To be noted: B16F10 tumor-bearing C57/BL6 mice, day 18; A0 or A8 3 mg/kg i.p. every two days; cisplatin single i.p. dose; 6 animals per group. In kind it is in vivo, mouse. As to the method: (§1) FIG. 5: A8 anti-tumor effect in mice is associated to MDSC and an immune anti-tumor response. (A) Mice were sc injected with B16F10 cells (5×10^4). On day 4, when tumor size was about 0.9 mm^3, animals were treated every two days until the end of the experiment with A0 or A8 (3 mg/kg dissolved in PBS, i.p injection). On day 5, half the animals were treated with cisplatin as a single dose (CDDP, i.p injection, 5 mg/kg). At day 18, the percentage of Gr1^+ CD11b^+ cells in the spleen collected from the different groups of mice was analyzed by flow cytometry (6 animals per group). As a MDCS negative control (Ctl) we used animals with no tumor cells injected. Right panels, a representative immunoblot of pSTAT3 in the MDSC (Gr1^+ CD11b^+ cells) isolated from the spleen of control animals (A0/PBS) or A8 and CDDP-treated animals (A8/CDDP). 14-3-3 is used as a loading control. (B) Analysis of tumor growth in the animals described above. Tumor size was measured every two days (6 animals per group). The white symbols represent the tumors from animals treated with cisplatin. (C) HSP70-exosomes isolated from B16F10 cells treated or not with cisplatin (CDDP, 25 μM) were determined by flow cytometry. Data represent the percentage of MFI+/−SD (n=3); *, p<0.05. (D) Association curves of HSP70-exosomes present in tumor-bearing mice sera treated or not with cisplatin (5 mg/kg). For the biolayer interferometry, biotinylated A8 was immobilized on streptavidin sensor tips. Curves represent mean values of triplicate measurements for each concentration (for each curve, the blood of 5 mice per group was pooled).
Exponentially growing B16F10 were harvested and resuspended in an RPMI medium without FBS. In vivo studies were performed in wild-type C57/BL6 mice (Charles River). B16F10 cells (5·10^4) were injected s.c. into the right flank Tumor volumes were evaluated every 2 days. Mice were treated with a control peptide aptamer A0 (3 mg/kg) or the HSP70 aptamer A8 (3 mg/kg) and half mice were treated with cisplatin (CDDP, […]). The animals were treated according to the guidelines of the Ministère de la Recherche et de la Technologie, France. All experiments were approved by the Comité d'Ethique de l'Université de Bourgogne.
MDSC cell isolation and analysis: Single-cell suspensions were prepared from spleens, and red cells were removed using ammonium chloride lysis buffer. Gr-1+ cells were isolated from spleens of different group of tumor-bearing mice or naive mice by labeling the cells with PE Cy7 Ab to Gr-1, then using magnetic PE Cy7 beads and LS MACS columns (Miltenyi Biotec). For extracellular staining of immune markers, single-cell suspensions were prepared. We incubated 1·10^6 freshly prepared cells with fluorochrome-coupled CD11b antibody (eBioscience). All events were acquired by a BD Bioscience LSR-II device and analyzed with FlowJo (Tree Star).
Animals were killed 18 days after cell injection. The site of tumor cell injection was resected and snap-frozen in liquid nitrogen. An immunohistochemical study of tumor-infiltrating inflammatory cells was performed on acetone-fixed 5 μm cryostat sections.
Next, we tested whether A8 was also able to block the immunosuppressive effect of MDSC in an in vivo cancer model. We performed subcutaneous injection at day 0 of B16F10 cells or media as a control in C57/BL6 mice. When tumor size reached about 0.9 mm^3 ([…]), mice were treated i.p. with a control peptide aptamer (A0) or A8 every two days until the end of the experiment. When indicated, half of the animals received cisplatin (CDDP, […], i.p.) as a single dose. Tumor growth was measured every two days. After 18 days, we analyzed the percentage of MDSC present in mice spleen (6 animals per group) by FACS using the specific markers Gr1^+ and CD11b^+ (FIG. 5A). […]

Test [3] relates to B16F10 cells. Nature of the test: HSP70-exosomes released by cultured B16F10 cells, flow cytometry. It counts as cell-based, mouse. To be noted: cisplatin 25 μM, FACS. As to the method: as §1, with “The white symbols represent the tumors from animals treated with cisplatin.” left out, “Data represent the percentage of MFI+/−SD (n=3); *, p<0.05. (D) Association curves of HSP70-exosomes present in tumor-bearing mice sera treated or not with cisplatin (5 mg/kg). For the biolayer interferometry, biotinylated A8 was immobilized on streptavidin sensor tips. Curves represent mean values of triplicate measurements for each concentration (for each curve, the blood of 5 mice per group was pooled).” left out
B16F10, CT26, HCT116 and SW480 cells were cultured for 48 h or 24 h with cisplatin (CDDP) treatment in medium depleted from serum-derived exosomes by overnight centrifugation at 100,000 g. […] The concentration of exosomal proteins was quantified by Lowry assay (Biorad). […]

Test [4] has as its system B16F10 tumor-bearing mice. Description: HSP70-exosomes in blood of tumor-bearing mice, A8-BLI protocol. It counts as in vivo, mouse. Particulars: cisplatin 5 mg/kg, BLI with A8 ligand.
The test system of test [5] is MSC2 cells. Nature of the test: pSTAT3 western blot in MSC2 cells incubated with tumor-derived exosomes. It counts as cell-based. To be noted: exosomes from CT26, B16F10, HCT116, SW480; 4 h and 6 h; aptamer 16 μM. The procedure:
FIG. 4: A8 blocks the activation and proliferation of MSC2 cells. (A) IL-6 concentration was determined by ELISA in the supernatant of MSC2 cells incubated or not for 24 h with exosomes (from B16F10) in the presence or absence of A8. *, p<0.05, (n=3). (B) A representative image of a western blot showing the kinetics of STAT3 phosphorylation in MCS2 cells incubated or not with exosomes isolated from B16F10, CT26 or HCT116 cells together with a peptide control (TDE) or A8 (TDE/A8). 14-3-3 is used as a loading control. In the right panels, the amount of pSTAT3 was quantified by densitometric analysis. *, p<0.05, n=4.
Five millions of MSC2 cells were incubated with or without exosomes isolated from B16F10, CT26, HCT116 or SW480 cells in the presence or absence of A8 during 4 h or 6 h. Cells were isolated, lysed and analysed for pSTAT3 by western blotting.
MSC2 (2·10^6) or MDSC (2·10^6) were incubated alone or with exosomes (from B16F10, CT26, HCT116, SW480) in the absence or presence of A8 or A17 (16 μM) during 6 hours (RPMI 10% FBS, 5% of CO2 at 37° C.). Every 2 hours, […] cells were sampled and centrifugated 5 min at 300 g. Cells were lysed in lysis buffer (50 mM HEPES (pH 7.6), 150 mM NaCl, 5 mM EDTA, and 0.1% NP40 and anti-phosphatases, Roche). Then, pSTAT3 and STAT3 expression were analyzed by western blotting.

In the case of `O=c1[nH]cc(F)c(=O)[nH]1` [5-fluorouracil], in test [1], the “amount of HSP70-exosomes released, dose-response” value (shortened to “amount … dose-response”) is on record as “increased with drug concentration”; the “number of exosomes at higher doses” value is reported as “drastically decreased”; the “amount of HSP70-exosomes released, extent of increase” value (“amount … of increase” below) is “greater”.

With `N.N.[Cl][Pt][Cl]` [cisplatin], the “percentage of MDSC (Gr1+ CD11b+) in spleen” value in test [2] is recorded as 9+/−0.9%. Further, the “amount of HSP70-exosomes released by B16F10 cancer cells” value in test [3] was “strongly increased”. Also, in test [1], the “amount … dose-response” value is given as “increased with drug concentration” and the “number of exosomes at higher doses” value is recorded as “drastically decreased”. In test [4], the “amount of HSP70-exosomes in the blood” value is reported as “much stronger”.

On to `COc1cccc2c1C(=O)c1c(O)c3c(c(O)c1C2=O)C[C@@](O)(C(=O)CO)C[C@@H]3O[C@H]1C[C@H](N)[C@H](O)[C@H](C)O1` [doxorubicin], for which, in test [1], the “amount … dose-response” value is on record as “increased with drug concentration”; the “number of exosomes at higher doses” value was “drastically decreased”; the “amount … of increase” value was “lesser”.

Take `Nc1ccn([C@@H]2O[C@H](CO)[C@@H](O)C2(F)F)c(=O)n1` [gemcitabine]: the “amount … of increase” value in test [1] is recorded as “induce an increase in the amount of HSP70-exosomes”.

Take `O=C1[O][Pt]2([NH][C@@H]3CCCC[C@H]3[NH]2)[O]C1=O` [oxaliplatin]: the “amount … of increase” value in test [1] was “greater”.

Consider `CC(=O)O[C@H]1C(=O)[C@@]2(C)[C@H]([C@H](OC(=O)c3ccccc3)[C@]3(O)C[C@H](OC(=O)[C@H](O)[C@@H](NC(=O)c4ccccc4)c4ccccc4)C(C)=C1C3(C)C)[C@]1(OC(C)=O)CO[C@@H]1C[C@@H]2O` [paclitaxel], for which the “amount … of increase” value in test [1] was “induce an increase in the amount of HSP70-exosomes”.

For “YCAYYSPRHKTTF (Synthetic Aptamer A17) [reference compound]”, the “STAT3 phosphorylation (activation) in MSC2 induced by tumor-derived exosomes” value in test [5] is reported as “did not interfere”.
